# Experimental data taken from patent publication US20250319045A1, “TRANSETHOSOME-ENCAPSULATED AGENTS AND METHODS OF USE THEREOF” (Northwestern University, priority 2024, published 2025).
# Key:
# [1] = Encapsulation efficiency and drug loading by HPLC after ultrafiltration; format: physicochemical; settings: Z-Endoxifen in transethosomes
# Description: After cooling the transethosomes to room temperature, the remaining volume was 10 ml. The total drug concentration was determined by HPLC using 20 μL demulsified samples. 200 μL samples were collected into a 30 kDa ultrafiltration tube, added 1 mL of 25% ethanol, ultrafiltrated at 5000 rpm, and the drug concentration of subnatant was determined by HPLC.
# Encapsulation efficiency was evaluated by HPLC. HPLC was performed using a WondaSil® C-18-WR column (4.6×150 mm, 5 μm pore size). The mobile phase included an A phase and a B phase at a ratio (A:B) of 30:70. The A phase contained 10 mM ammonium formate in water: 10 mM ammonium formate in methanol. The B phase contained 10 mM ammonium formate in methanol at a ratio of 40:60. Samples were prepared as follows. The solvent was prepared by mixing 10 mM ammonium formate in a solution containing water and acetonitrile at a ratio of 1:1 (v/v). Z-Endoxifen was diluted in the solvent at a concentration gradient of 5, 10, 25, 50, and 80 μg/mL. Samples were injected into the column at a volume of 20 μL and were passed through the column at a flow rate of 0.8 mL/min at a temperate of 30° C. The detection wavelength was 243 nm.
# The following equations were used in Table 1: […]
# [2] = Local tolerance and dermal toxicity test, Draize scoring; settings: after the 7th DNCB dose (third week), 0.05% in 95% ethanol
Structure (SMILES),Drug loading (%) [1],Encapsulation efficiency (%) [1],Erythema score (Draize) ([2]; 3 of 10 animals),Erythema score (Draize) ([2]; remaining 7 animals)
"CC/C(=C(\c1ccc(O)cc1)c1ccc(OCCNC)cc1)c1ccccc1 [Z-Endoxifen, (Z)-endoxifen]",4.77%,92.34%,–,–
"O=[N+]([O-])c1ccc(Cl)c([N+](=O)[O-])c1 [DNCB, 1-chloro-2,4-dinitrobenzene]",–,–,2,1
